Laboratory results from ChEMBL document CHEMBL1201862, “PubChem BioAssay data set” (2004).
Calls of active or inactive are those of the source.

Assays:
Caspase-9 = Caspase-9 (Homo sapiens, UniProt P55211); assay: inhibitors of purified CASP9 protease – biochemical, fluorescence, plate reader, cherry-picked samples, selectivity assay for caspase-6 inhibitor project, dose response (AID 743293)
[1] = NIH3T3 cell viability loss – ATP luminescence, mouse fibroblasts, counter-screen, dose response (AID 2010); format: functional, cell-based;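 note: cells exposed to compound for about 90 hours before reading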
[2] = molecular target: Serine/threonine-protein kinase PLK4 (Homo sapiens, UniProt O00444); format: functional;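 note: PLK4 measured as one member of a kinome-wide kinase profiling panel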
[3] = molecular target: Mitogen-activated protein kinase 8 (Homo sapiens, UniProt P45983); format: functional;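 note: value comes from one member of a kinome-wide kinase profiling panel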
Chain of Mitogen-activated protein kinase 8 (P45983 whole entry): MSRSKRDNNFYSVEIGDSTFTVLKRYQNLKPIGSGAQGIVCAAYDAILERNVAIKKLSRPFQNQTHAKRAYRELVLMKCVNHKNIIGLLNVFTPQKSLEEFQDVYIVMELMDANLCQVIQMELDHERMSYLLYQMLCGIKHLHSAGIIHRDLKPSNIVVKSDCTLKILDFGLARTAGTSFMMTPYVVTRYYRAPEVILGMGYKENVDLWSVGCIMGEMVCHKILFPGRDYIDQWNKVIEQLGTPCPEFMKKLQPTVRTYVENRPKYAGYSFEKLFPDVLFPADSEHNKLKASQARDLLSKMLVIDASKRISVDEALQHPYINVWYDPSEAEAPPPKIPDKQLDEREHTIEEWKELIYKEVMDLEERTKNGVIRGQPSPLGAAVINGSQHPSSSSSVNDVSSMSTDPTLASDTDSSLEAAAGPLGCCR

Ephrin type-A receptor 2 = Ephrin type-A receptor 2 (Homo sapiens, UniProt P29317); format: functional;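 note: EPHA2 tested as one member of a kinome-wide kinase panel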
Chain of Ephrin type-A receptor 2 (P29317 whole entry): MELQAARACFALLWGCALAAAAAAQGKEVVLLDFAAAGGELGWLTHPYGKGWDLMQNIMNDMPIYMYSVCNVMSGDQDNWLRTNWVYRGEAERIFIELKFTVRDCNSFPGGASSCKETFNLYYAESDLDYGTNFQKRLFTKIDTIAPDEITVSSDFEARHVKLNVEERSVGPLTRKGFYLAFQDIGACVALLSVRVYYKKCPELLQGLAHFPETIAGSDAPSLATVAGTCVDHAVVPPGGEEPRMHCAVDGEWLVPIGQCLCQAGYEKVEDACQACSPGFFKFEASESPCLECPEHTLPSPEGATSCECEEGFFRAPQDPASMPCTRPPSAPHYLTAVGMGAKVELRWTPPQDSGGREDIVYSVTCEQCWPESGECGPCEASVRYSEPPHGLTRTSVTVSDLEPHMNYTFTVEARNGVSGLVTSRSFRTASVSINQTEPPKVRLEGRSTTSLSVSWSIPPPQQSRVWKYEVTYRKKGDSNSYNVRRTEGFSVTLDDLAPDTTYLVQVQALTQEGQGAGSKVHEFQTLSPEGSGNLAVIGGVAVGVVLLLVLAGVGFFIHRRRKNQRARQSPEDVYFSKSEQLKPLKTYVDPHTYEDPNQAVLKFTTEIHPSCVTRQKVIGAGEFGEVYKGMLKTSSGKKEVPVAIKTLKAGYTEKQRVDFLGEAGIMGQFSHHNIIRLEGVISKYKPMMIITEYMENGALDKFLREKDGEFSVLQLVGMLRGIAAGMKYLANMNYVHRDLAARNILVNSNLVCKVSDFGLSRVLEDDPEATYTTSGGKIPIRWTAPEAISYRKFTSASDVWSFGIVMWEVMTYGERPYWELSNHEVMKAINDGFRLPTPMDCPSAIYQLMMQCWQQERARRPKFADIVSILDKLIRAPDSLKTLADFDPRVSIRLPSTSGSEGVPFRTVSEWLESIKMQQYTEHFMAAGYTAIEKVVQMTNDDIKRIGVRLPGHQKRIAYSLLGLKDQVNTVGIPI

[4] = molecular target: Fibroblast growth factor receptor 3 (Homo sapiens, UniProt P22607); format: functional
[5] = molecular target: ALK tyrosine kinase receptor (Homo sapiens, UniProt Q9UM73); format: functional;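 note: ALK tested as one member of a kinase panel screen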
Chain of ALK tyrosine kinase receptor (Q9UM73 whole entry): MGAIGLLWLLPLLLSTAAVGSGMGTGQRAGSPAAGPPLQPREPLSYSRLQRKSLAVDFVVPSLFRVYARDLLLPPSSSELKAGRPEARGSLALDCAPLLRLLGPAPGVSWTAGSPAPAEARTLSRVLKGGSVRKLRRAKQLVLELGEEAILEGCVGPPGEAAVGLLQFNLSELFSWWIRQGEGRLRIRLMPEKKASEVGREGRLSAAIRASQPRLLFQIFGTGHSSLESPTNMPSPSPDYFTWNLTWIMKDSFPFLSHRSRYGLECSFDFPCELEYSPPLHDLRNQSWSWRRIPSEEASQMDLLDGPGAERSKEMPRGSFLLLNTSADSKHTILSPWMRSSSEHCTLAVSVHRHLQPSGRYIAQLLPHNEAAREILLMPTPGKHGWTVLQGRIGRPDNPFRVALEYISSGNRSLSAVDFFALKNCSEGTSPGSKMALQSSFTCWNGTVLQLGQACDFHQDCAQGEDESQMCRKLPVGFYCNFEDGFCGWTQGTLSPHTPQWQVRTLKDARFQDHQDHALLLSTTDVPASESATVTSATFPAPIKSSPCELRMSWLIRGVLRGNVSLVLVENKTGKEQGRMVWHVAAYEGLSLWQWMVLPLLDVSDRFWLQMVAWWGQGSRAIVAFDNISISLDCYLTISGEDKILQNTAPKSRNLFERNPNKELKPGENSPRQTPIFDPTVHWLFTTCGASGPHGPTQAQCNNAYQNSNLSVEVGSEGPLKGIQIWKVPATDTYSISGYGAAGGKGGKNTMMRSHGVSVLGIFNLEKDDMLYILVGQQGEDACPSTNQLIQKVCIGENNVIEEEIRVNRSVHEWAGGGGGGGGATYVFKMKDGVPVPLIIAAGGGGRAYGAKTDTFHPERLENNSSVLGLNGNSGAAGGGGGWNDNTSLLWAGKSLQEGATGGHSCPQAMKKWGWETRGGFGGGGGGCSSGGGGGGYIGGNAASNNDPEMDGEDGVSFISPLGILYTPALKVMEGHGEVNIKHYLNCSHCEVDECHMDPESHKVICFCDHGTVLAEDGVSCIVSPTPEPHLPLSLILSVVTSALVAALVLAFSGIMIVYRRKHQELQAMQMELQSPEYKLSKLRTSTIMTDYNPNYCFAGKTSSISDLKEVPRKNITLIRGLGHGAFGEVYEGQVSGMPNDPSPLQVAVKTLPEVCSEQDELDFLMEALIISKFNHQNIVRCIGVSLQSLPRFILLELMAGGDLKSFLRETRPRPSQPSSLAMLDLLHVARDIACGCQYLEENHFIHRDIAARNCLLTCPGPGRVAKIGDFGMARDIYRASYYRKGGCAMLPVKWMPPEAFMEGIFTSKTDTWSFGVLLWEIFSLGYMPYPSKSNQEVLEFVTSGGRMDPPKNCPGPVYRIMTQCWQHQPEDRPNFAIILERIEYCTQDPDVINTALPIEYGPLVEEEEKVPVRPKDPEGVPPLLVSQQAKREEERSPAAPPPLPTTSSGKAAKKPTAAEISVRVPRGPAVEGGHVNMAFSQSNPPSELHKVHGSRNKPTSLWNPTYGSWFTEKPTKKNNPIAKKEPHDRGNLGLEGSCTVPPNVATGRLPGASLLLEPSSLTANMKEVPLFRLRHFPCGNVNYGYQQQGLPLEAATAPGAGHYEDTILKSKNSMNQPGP

[6] = molecular target: Cyclin-dependent kinase 1 (Homo sapiens, UniProt P06493); format: functional;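 note: Kinome-wide panel profiling, with the target listed as panel member CDC2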
[7] = molecular target: Mitogen-activated protein kinase 9 (Homo sapiens, UniProt P45984); format: functional;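 note: value from a kinome panel profiling assay, MAPK9 panel entry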
[8] = molecular target: Calcium/calmodulin-dependent protein kinase type II subunit alpha (Homo sapiens, UniProt Q9UQM7); assay: Navigating the Kinome. Panel member name: CAMK2A; format: functional
Chain of Calcium/calmodulin-dependent protein kinase type II subunit alpha (Q9UQM7 whole entry): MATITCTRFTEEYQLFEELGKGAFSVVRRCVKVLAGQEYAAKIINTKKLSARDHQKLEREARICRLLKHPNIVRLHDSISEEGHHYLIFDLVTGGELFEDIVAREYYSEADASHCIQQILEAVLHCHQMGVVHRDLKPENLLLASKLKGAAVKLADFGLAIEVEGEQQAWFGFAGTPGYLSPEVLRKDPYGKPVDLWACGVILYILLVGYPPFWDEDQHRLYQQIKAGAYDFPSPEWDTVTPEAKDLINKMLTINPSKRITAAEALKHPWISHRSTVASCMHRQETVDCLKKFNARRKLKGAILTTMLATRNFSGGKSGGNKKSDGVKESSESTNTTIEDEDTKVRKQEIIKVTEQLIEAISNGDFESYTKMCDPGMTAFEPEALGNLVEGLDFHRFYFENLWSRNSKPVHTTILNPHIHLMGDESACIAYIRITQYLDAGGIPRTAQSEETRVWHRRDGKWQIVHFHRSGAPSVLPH

[9] = molecular target: Glycogen synthase kinase-3 beta (Homo sapiens, UniProt P49841); format: functional;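 note: value comes from a broad kinome profiling panel, with GSK3B as the panel member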
Chain of Glycogen synthase kinase-3 beta (P49841 whole entry): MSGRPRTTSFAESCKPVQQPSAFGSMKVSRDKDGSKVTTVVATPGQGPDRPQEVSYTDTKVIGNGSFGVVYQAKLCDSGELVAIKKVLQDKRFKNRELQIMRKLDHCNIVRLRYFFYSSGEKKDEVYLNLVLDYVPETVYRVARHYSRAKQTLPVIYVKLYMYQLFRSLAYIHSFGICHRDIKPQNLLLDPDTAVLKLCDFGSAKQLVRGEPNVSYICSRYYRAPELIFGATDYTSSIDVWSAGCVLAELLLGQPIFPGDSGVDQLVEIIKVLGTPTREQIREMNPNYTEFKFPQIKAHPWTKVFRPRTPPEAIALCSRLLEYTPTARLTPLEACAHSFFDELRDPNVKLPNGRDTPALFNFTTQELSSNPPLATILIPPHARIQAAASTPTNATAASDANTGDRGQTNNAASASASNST

[10] = molecular target: Serine/threonine-protein kinase DCLK1 (Homo sapiens, UniProt O15075); format: functional;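 note: affinity for DCLK1 (listed as DCAMKL1) measured as one member of a kinome-wide kinase profiling panel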
Chain of Serine/threonine-protein kinase DCLK1 (O15075 whole entry): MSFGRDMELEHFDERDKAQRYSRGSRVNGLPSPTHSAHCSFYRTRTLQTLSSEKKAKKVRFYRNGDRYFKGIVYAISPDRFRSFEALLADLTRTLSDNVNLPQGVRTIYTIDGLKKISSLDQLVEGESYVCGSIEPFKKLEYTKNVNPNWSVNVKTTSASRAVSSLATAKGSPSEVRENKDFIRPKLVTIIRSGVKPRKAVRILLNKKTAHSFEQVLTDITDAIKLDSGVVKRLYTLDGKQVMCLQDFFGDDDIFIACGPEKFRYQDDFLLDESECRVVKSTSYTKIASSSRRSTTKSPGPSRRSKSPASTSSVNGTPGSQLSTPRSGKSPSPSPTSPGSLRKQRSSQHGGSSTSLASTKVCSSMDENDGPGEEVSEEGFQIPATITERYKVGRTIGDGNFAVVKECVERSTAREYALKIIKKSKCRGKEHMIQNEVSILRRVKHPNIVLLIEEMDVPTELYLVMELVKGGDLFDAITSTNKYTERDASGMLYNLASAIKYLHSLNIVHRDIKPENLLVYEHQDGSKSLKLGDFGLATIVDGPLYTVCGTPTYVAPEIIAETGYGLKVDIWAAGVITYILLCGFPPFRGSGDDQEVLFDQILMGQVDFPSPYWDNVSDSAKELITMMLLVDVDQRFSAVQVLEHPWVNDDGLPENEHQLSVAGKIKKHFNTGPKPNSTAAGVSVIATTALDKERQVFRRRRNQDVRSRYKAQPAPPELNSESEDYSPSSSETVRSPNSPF

[11] = molecular target: Serine/threonine-protein kinase PLK1 (Homo sapiens, UniProt P53350); format: functional;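 note: PLK1 measured as one member of a kinome-wide profiling panel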
[12] = molecular target: Phosphorylase b kinase gamma catalytic chain, liver/testis isoform (Homo sapiens, UniProt P15735); format: functional;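 note: PHKG2 measured as one member of a kinome-wide kinase panel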
Chain of Phosphorylase b kinase gamma catalytic chain, liver/testis isoform (P15735 whole entry, canonical isoform): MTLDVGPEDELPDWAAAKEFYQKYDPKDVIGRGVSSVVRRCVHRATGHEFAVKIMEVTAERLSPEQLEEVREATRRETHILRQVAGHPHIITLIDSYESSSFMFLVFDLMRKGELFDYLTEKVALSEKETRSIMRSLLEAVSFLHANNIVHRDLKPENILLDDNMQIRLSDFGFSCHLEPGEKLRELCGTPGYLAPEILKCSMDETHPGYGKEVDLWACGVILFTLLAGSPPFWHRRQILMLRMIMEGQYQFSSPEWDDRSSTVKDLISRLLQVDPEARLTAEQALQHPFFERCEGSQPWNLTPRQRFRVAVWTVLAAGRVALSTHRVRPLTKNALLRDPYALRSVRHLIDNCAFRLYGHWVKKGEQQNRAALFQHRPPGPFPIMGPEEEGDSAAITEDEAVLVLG

[13] = molecular target: T1, Sentrin-specific protease 6 (Homo sapiens, UniProt Q9GZR1); assay: SAR Analysis of small molecule inhibitors of Sentrin-specific protease 6 (SENP6) using a Luminescent assay. [Related pubchem assays (depositor defined):AID2582, AID2599]; format: functional
T1 sequence (Q9GZR1 whole entry): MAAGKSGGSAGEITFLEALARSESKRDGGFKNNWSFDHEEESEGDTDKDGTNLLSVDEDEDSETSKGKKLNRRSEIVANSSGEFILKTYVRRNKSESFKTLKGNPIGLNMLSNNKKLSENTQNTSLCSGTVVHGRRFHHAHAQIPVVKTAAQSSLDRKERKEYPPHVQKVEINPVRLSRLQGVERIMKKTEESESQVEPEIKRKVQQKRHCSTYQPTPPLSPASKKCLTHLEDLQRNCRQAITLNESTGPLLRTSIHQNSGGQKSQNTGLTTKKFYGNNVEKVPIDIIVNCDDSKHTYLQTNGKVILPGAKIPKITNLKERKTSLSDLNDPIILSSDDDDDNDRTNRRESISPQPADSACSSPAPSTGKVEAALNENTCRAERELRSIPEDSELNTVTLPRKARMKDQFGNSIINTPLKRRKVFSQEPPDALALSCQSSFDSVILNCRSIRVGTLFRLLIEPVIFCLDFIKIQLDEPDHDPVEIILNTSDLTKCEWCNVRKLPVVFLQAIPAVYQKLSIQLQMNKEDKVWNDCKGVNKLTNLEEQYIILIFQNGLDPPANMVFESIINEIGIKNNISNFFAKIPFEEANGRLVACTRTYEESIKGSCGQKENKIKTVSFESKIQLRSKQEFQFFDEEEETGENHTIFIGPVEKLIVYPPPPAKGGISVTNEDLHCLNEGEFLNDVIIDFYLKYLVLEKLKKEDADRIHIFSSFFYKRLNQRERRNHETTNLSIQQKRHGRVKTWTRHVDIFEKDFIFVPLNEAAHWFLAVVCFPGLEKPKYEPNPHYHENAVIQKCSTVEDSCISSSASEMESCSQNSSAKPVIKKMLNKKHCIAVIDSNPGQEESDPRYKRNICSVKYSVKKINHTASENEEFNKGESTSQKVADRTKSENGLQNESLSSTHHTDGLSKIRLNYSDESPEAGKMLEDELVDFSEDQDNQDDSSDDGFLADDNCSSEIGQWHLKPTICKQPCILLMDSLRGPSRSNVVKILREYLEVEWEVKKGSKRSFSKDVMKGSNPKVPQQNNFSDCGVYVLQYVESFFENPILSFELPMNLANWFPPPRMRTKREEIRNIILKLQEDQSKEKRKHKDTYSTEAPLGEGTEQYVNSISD

With `Cc1c(NC(=O)C(C)OC(=O)c2ccc([N+](=O)[O-])s2)c(=O)n(-c2ccccc2)n1C` (stereo not given) the AC50 (Caspase-9) was 41.3 µM (active) and the EC50 [1] was > 60 µM (not active).

In the case of `CC(N)C1CCC(C(=O)Nc2ccnc3[nH]ccc23)CC1` (stereo not given), the Ki [2] is reported as 1.58 µM (active), the Ki [3] is reported as > 3.98 µM (inactive) and the Ki (Ephrin type-A receptor 2) is reported as > 3.16 µM (inactive). The Ki [4] was > 2 µM (inactive), the Ki [5] was 2 µM (active) and the Ki [6] was 0.631 µM (active). The Ki [7] was > 3.98 µM (inactive), the Ki [8] was 3.98 µM (active) and the Ki [9] was > 5.01 µM (inactive). For the same compound, the Ki [10] was > 10 µM (inactive), the Ki [11] was > 7.94 µM (inactive) and the Ki [12] was > 5.01 µM (inactive).

With `COc1cc(Br)c(C(=O)c2nccc3cc(OC)c(OC)cc23)cc1OC` the IC50 [13] was 14.3 µM (active).
